Each block holds one compound with its values, some of them ahead of it.
Columns and labels:
[1] = biological target: T1, Tyrosine-protein kinase JAK3 (Homo sapiens) (UniProt P52333); test: Selectivity interaction (KinomeScan (DiscoverX)) EUB0000666a JAK3; conditions: at 10 µM
T1 sequence (whole entry): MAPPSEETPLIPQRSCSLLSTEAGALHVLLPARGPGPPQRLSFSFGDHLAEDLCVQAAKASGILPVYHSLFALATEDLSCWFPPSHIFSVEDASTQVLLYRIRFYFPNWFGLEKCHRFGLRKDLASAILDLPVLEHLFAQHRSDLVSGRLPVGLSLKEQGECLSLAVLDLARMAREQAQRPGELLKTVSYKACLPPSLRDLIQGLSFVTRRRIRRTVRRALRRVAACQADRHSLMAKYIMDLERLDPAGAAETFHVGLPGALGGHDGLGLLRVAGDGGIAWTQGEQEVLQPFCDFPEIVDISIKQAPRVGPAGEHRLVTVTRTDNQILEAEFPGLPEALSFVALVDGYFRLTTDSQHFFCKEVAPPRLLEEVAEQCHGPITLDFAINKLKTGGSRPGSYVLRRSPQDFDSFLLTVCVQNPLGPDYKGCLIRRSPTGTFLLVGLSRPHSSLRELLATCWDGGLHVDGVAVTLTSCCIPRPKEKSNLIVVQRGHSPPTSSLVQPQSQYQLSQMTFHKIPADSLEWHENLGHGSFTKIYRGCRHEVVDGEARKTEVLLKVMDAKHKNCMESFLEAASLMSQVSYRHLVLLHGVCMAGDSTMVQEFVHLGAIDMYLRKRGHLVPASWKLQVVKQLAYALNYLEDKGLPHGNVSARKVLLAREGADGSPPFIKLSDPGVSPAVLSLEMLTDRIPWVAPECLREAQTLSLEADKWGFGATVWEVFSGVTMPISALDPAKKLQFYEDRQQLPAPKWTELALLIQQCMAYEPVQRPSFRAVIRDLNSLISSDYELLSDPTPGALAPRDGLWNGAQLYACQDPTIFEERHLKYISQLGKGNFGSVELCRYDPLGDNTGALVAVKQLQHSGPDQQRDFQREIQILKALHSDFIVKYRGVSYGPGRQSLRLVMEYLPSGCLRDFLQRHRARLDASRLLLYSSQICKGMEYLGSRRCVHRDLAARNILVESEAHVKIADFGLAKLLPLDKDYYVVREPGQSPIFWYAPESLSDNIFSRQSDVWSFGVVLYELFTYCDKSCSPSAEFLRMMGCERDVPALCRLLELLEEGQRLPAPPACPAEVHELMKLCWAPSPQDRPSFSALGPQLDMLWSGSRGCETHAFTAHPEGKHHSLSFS

[2] = biological target: T2, Ephrin type-B receptor 2 (Homo sapiens) (UniProt P29323); test: Selectivity interaction (KinomeScan (DiscoverX)) EUB0000607a EPHB2; conditions: at 10 µM
T2 sequence (whole entry): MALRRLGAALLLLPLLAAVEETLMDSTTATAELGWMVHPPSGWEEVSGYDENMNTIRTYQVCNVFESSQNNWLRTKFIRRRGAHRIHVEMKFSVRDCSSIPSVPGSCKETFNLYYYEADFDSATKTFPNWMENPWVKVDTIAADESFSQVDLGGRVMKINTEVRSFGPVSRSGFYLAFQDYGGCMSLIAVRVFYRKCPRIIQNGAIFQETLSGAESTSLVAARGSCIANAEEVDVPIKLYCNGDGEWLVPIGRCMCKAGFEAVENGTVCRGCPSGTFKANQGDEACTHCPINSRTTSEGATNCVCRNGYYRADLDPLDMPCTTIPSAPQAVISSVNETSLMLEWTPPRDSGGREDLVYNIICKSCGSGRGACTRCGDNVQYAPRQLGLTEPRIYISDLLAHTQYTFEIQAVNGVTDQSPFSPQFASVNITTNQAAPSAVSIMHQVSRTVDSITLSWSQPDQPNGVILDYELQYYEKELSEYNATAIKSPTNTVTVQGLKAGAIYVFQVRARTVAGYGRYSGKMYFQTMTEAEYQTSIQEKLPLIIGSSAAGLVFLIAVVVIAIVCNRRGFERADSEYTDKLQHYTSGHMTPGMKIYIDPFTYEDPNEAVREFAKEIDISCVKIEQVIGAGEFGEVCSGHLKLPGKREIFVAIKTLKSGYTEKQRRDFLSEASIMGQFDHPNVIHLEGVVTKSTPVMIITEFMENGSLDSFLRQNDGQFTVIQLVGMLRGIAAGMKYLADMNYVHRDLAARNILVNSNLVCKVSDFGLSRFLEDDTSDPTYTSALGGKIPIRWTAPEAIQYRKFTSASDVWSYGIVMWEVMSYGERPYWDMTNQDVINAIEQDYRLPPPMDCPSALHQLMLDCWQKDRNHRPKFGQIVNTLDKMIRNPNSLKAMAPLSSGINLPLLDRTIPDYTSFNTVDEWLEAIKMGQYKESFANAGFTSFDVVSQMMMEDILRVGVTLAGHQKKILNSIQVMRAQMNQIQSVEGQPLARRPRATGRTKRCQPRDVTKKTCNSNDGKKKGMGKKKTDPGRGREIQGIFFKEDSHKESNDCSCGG

[3] = biological target: [Pyruvate dehydrogenase (acetyl-transferring)] kinase isozyme 1, mitochondrial (Homo sapiens, UniProt Q15118); test: Selectivity interaction (ProQinase) EUB0000171b PDK1
[4] = biological target: Mitogen-activated protein kinase 10 (Homo sapiens, UniProt P53779); test: Selectivity interaction (Kinase panel (enzymatic assay)) EUB0000595a MAPK10
Chain of Mitogen-activated protein kinase 10 (P53779 whole entry): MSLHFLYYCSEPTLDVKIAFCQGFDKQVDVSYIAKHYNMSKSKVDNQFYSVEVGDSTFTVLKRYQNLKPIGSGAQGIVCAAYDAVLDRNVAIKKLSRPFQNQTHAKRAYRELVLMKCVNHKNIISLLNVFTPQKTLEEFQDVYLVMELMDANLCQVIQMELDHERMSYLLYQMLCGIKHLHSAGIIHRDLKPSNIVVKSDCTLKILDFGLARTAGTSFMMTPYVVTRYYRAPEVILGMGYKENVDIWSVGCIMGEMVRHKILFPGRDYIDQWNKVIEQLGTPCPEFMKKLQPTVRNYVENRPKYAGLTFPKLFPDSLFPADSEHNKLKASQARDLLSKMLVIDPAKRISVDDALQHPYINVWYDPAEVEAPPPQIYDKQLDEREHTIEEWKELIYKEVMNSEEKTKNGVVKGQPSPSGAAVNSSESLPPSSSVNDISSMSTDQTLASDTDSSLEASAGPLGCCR

[5] = biological target: Serine/threonine-protein kinase pim-3 (Homo sapiens) (UniProt Q86V86); test: Selectivity interaction (Ambit KINOMEscan and KiNATiv profiling in Jurkat cells) EUB0000090b PIM3; format: cell-based; conditions: at 1 µM
[6] = biological target: T3, cAMP-dependent protein kinase catalytic subunit PRKX (Homo sapiens) (UniProt P51817); test: Selectivity interaction (KinomeScan (DiscoverX)) EUB0001619a PRKX; conditions: at 1 µM
T3 sequence (whole entry): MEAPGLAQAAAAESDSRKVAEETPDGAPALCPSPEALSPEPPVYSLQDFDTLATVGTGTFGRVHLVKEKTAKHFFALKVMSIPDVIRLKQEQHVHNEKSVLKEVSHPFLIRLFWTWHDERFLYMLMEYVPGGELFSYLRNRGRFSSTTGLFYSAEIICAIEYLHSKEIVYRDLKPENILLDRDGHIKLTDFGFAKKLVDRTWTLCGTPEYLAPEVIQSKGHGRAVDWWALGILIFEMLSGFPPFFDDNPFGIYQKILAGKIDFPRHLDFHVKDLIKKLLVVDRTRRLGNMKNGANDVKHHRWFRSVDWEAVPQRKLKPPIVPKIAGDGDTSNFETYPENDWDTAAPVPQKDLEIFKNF

SMILES: O=C(NOC[C@H](O)CO)c1ccc(F)c(F)c1Nc1ccc(I)cc1F
% of control [1]: 100%

SMILES: CNC(=O)Nc1ccc(-c2nc(N3CC4CCC(C3)O4)c3cnn(C4CCC5(CC4)OCCO5)c3n2)cc1
% of control [2]: 78%

% of control ([3]; at 1 µM): 74% | % of control ([3]; at 5 µM): 39%
SMILES: C=CC(=O)Nc1cccc(C(=O)Nc2ccc(Nc3cc(-c4[nH]c(SC)nc4C)ccn3)cc2)c1

SMILES: COCC(=O)NC/C=C/c1ccc2ncnc(Nc3ccc(Oc4ccc(C)nc4)c(C)c3)c2c1 [CP-724714]
IC50 [4]: > 10 µM

SMILES: CN(C)C/C=C/C(=O)Nc1ccc(C(=O)N2CCCC(Nc3ncc(Cl)c(-c4c[nH]c5ccccc45)n3)C2)cc1 (configuration not stated)
% of control [5]: 99%

SMILES: N#Cc1cccc(-c2c[nH]c3ncnc(N4CCOCC4)c23)c1
% of control [6]: 100%
